The test system of assay [1] is NCI-H23. Briefly: Cytotoxicity against human NCI-H23 cells […] at 50 uM measured after 48 hrs by MTT assay relative to control. In kind it is functional. (In general: Tetrazolium assays rely on reduction of a dye to a coloured formazan, in cell work by metabolically active cells.)
Assay [2] deals with SW-620. Briefly: Cytotoxicity against human SW620 cells assessed as inhibition of cell growth at 50 uM measured after 48 hrs by MTT assay relative to control. Format: functional.
For assay [3], the system named is NCI-H1299. Briefly: Cytotoxicity against human NCI-H1299 cells assessed as inhibition of cell growth at 50 uM measured after 48 hrs by MTT assay relative to control. Format: functional. Further details: scale not given: the % may be the effect or the level left.
In assay [4] the test system is Caco-2. Briefly: Cytotoxicity against human Caco-2 cells assessed as inhibition of cell growth at 50 uM measured after 48 hrs by MTT assay relative to control. In kind it is functional. Details: scale not given: the % may be the effect or the level left.
The subject of assay [5] is A-375. The assay can be described thus: Cytotoxicity against human A-375 cells […] at 50 uM measured after 48 hrs by MTT assay relative to control. In kind it is functional.
For assay [6], the system named is BEAS-2B. Briefly: Cytotoxicity against human BEAS-2B cells assessed as inhibition of cell growth at 50 uM measured after 48 hrs by MTT assay relative to control. In kind it is functional.
The test system of assay [7] is NCI-H23. Briefly: Cytotoxicity against human NCI-H23 cells assessed as inhibition of cell growth measured after 48 hrs by MTT assay. In kind it is functional, cell-based. The note with it: NCI-H23, 48 h.
The test system of assay [8] is SW-620. The assay can be described thus: Cytotoxicity against human SW620 cells assessed as inhibition of cell growth measured after 48 hrs by MTT assay. In kind it is functional, cell-based.
Assay [9] concerns NCI-H1299. The assay can be described thus: Cytotoxicity against human NCI-H1299 cells assessed as inhibition of cell growth measured after 48 hrs by MTT assay. Format: functional, cell-based. The note with it: NCI-H1299, 48 h.
Assay [10] deals with Caco-2. Briefly: Cytotoxicity against human Caco-2 cells assessed as inhibition of cell growth measured after 48 hrs by MTT assay. In kind it is functional, cell-based. The note with it: Caco-2, 48 h.
Assay [11] relates to A-375. Briefly: Cytotoxicity against human A-375 cells assessed as inhibition of cell growth measured after 48 hrs by MTT assay. The note with it: A-375, 48 h. In kind it is functional, cell-based.
Assay [12] concerns BEAS-2B. Briefly: Cytotoxicity against human BEAS-2B cells assessed as inhibition of cell growth measured after 48 hrs by MTT assay. In kind it is functional, cell-based.
[13] abbreviates: Homo sapiens, SW-620, 48 h, read-out: IC50.

Activity calls are given as the source filed them. The rule behind the calls is not given here.

Turning to `COC(=O)[C@@]1([C@H](O)[C@@H](C)CC(=O)O)CC(=O)c2c(ccc(-c3ccc(O)c4c3O[C@](C(=O)OC)([C@H](O)[C@@H](C)CC(=O)O)CC4=O)c2O)O1`, the Activity in assay [1] is reported as 73.1%; in [3], 78.6%; in [4] it was 94.4%; in assay [5], 91.7%. Further, the figures for the “Cell growth relative to control” value in assay [2] and in assay [6] were 99.3% and 110%, respectively.
In general, IC50 refers to the concentration at which inhibition is half-maximal. For the compound `COC(=O)[C@]1([C@H]2OC(=O)C[C@@H]2C)CC(=O)c2c(ccc(-c3ccc4c(c3O)C(=O)C[C@@](C(=O)OC)([C@H](O)[C@@H](C)CC(=O)O)O4)c2O)O1`, the IC50 is > 50 µM in assay [7]; > 50 µM in assay [8] (setting [13]); > 50 µM in assay [9]; 25.9 µM in assay [10]; > 50 µM in assay [11]; “Not Active” in assay [12] (beas-2b). The Activity is given as 90.1% in assay [1], 76.4% in assay [3], 46.8% in assay [4] and 63% in assay [5]. Further, the figures for the “Cell growth relative to control” value in [2] and in assay [6] were 70.5% and 158.7%, respectively.
As for `COC(=O)[C@@]12Oc3c(-c4ccc5c(c4O)C(=O)C[C@](C(=O)OC)([C@@H]4OC(=O)C[C@@H]4C)O5)ccc(O)c3C(=O)C1=C(O)C[C@H](C)[C@H]2O`, the Activity in [1] was 102.6%; in assay [3], 66.2%; in [4], 102.4%; in assay [5] it was 106%. The “Cell growth relative to control” value is on record as 117% in assay [2] and 96.8% in assay [6].
On to `COC(=O)[C@@]12Oc3c(-c4ccc(O)c5c4O[C@]4(C(=O)O)C(=C(O)C[C@@H](C)[C@@H]4O)C5=O)ccc(O)c3C(=O)C1=C(O)C[C@H](C)[C@@H]2O`, for which the IC50 in assay [7] is 3.9 µM; in assay [8] (sw-620), “Not Active”; in [9], 30.9 µM; in assay [10], > 50 µM; in assay [11], > 50 µM; in assay [12] (beas-2b), “Not Active”. Also, the Activity was found to be 6.7% in assay [1], 38.2% in assay [3], 73.2% in assay [4] and 84.1% in assay [5]. Moreover, the entries for the “Cell growth relative to control” value in assay [2] and in assay [6] were 99.9% and 155.5%, respectively.
As to `COC(=O)[C@@]12Oc3c(-c4ccc5c(c4O)C(=O)C[C@](C(=O)OC)([C@H]4OC(=O)C[C@@H]4C)O5)ccc(O)c3C(=O)C1=C(O)C[C@H](C)[C@H]2O`, the Activity in [1] was 82.8%; in [3], 64.2%; in [4], 99.2%; in [5], 86.1%. In addition, the “Cell growth relative to control” value in [2] is recorded as 111%; in [6], 179.2%.
In the case of `COC(=O)C[C@H](C)[C@@H](O)[C@]1(C(=O)OC)CC(=O)c2c(O)ccc(-c3ccc4c(c3O)C(=O)C[C@](C(=O)OC)([C@@]3(O)OC(=O)C[C@@H]3C)O4)c2O1`, the Activity came out at 86.7% in [1], 70.4% in assay [3], 55.9% in assay [4] and 102.5% in [5]. For the same compound, the “Cell growth relative to control” value in [2] is 72.9%; in [6], 171%.
Turning to `COC(=O)[C@]12Oc3ccc(-c4ccc5c(c4O)C(=O)C4=C(O)C[C@@H](C)[C@H](O)[C@@]4(C(=O)OC)O5)c(O)c3C(=O)C1=C(O)C[C@@H](C)[C@@H]2O` [SECALONIC ACID A], the half-maximal inhibitory concentration (IC50) is 2.6 µM in assay [7]; > 50 µM in assay [8] (setting [13]); > 50 µM in assay [9]; > 50 µM in assay [10]; > 50 µM in [11]; “Not Active” in assay [12] (beas-2b). The Activity in assay [1] was 8.7%; in assay [3] it was 73.6%; in assay [4] it was 54.5%; in [5], 75.6%. The “Cell growth relative to control” value stood at 80.1% in [2] and 107.3% in assay [6].
Regarding `CNC(=O)c1cc(Oc2ccc(NC(=O)Nc3ccc(Cl)c(C(F)(F)F)c3)cc2)ccn1` [SORAFENIB], the half-maximal inhibitory concentration (IC50) in assay [7] stood at 2.4 µM; in assay [8] (setting [13]) it was 2.3 µM; in assay [9], 3.4 µM; in assay [10] it was 1.3 µM; in assay [11], 1.8 µM; in assay [12] (Homo sapiens, BEAS-2B, 48 h, read-out: IC50), 31.6 µM.
For `COC(=O)C[C@H](C)[C@@H](O)[C@]1(C(=O)OC)CC(=O)c2c(ccc(-c3ccc4c(c3O)C(=O)C[C@](C(=O)OC)([C@@]3(O)OC(=O)C[C@@H]3C)O4)c2O)O1`, the Activity in assay [1] is listed as 73.6%; in [3], 87.9%; in [4], 92.1%; in assay [5], 94.4%. For the same compound, the “Cell growth relative to control” value stood at 115.5% in assay [2] and 171.6% in [6].
`COC(=O)[C@@]12Oc3cc(C)c(-c4ccc5c(c4O)C(=O)C4=C(O)C[C@H](C)[C@H](O)[C@]4(C(=O)OC)O5)c(O)c3C(=O)C1=C(O)CC[C@H]2O`: the IC50 was 6.9 µM in [7]; > 50 µM in [8] (setting [13]); > 50 µM in assay [9]; > 50 µM in assay [10]; > 50 µM in assay [11]; “Not Active” in [12] (beas-2b). The Activity is 5.2% in [1], 76.4% in assay [3], 68.9% in [4] and 83.9% in assay [5]. Besides, the figures for the “Cell growth relative to control” value in assay [2] and in assay [6] were 98.9% and 155.8%, respectively.
Regarding `COC(=O)[C@@]12Oc3ccc(-c4ccc5c(c4O)C(=O)C[C@](C(=O)OC)([C@H]4OC(=O)C[C@@H]4C)O5)c(O)c3C(=O)C1=C(O)C[C@H](C)[C@H]2O`, the Activity in assay [1] is 87.6%; in [3], 78.4%; in assay [4] it was 82.5%; in assay [5] it was 74.7%. In addition, the figures for the “Cell growth relative to control” value in [2] and in assay [6] were 90.4% and 109.9%, respectively.
As for `COC(=O)[C@@]12Oc3ccc(-c4ccc(O)c5c4O[C@@](C(=O)OC)([C@H]4OC(=O)C[C@@H]4C)CC5=O)c(O)c3C(=O)C1=C(O)C[C@H](C)[C@H]2O`, the Activity in assay [1] is 56%; in assay [3], 65.9%; in [4], 82.4%; in assay [5], 76.8%. Besides, the “Cell growth relative to control” value in assay [2] was 94.9%. The outcome in [6] was inactive.
For the compound `COC(=O)[C@@]1([C@H](O)[C@@H](C)CC(=O)O)CC(=O)c2c(ccc(-c3ccc4c(c3O)C(=O)C[C@@](C(=O)OC)([C@H](O)[C@@H](C)CC(=O)O)O4)c2O)O1`, the Activity in assay [1] came to 83.6%; in assay [3] it was 64.9%; in assay [4], 94.4%; in [5], 103.2%. Moreover, the “Cell growth relative to control” value in assay [2] was determined as 98.7%; in assay [6], 105.5%.
In the case of `COC(=O)[C@@]12Oc3c(c(O)cc(C)c3-c3ccc4c(c3O)C(=O)C3=C(O)C[C@H](C)[C@H](O)[C@]3(C(=O)OC)O4)C(=O)C1=C(O)CC[C@H]2O`, the Activity worked out at 82.6% in assay [1], 81.1% in assay [3], 85% in assay [4] and 79.9% in assay [5]. The entries for the “Cell growth relative to control” value in [2] and in [6] were 106.3% and 99.5%, respectively.

Values taken from ChEMBL document CHEMBL5357084, “Structure-Guided Discovery of Diverse Cytotoxic Dimeric Xanthones/Chromanones from Penicillium chrysogenum C-7-2-1 and Their Interconversion Properties” (J Nat Prod, 2024).
